Assay results: patent publication US11634447B2 (priority 2012, dated 2023)

tested on: bacterial strain LF82 binding to the glycoprotein BSA-(Mannose)3; assay: Bacterial Binding Assay (BBA); type: cell-based, Escherichia coli; settings: read-out: Bacterial Binding Assay IC50, LF82/Luciferase strain binding to BSA-(Man)3 coated plates, luminescence
In short: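 Inhibition of LF82/luciferase E. coli adhesion is read as luminescence after washing off unbound cells. Compound and bacteria (10^7 per well) are co-incubated 40-75 min at room temperature on wells coated with 0.5-2 μg/mL BSA-(Man)3, with BSA-only wells as background; IC50 values derived.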

Compound	IC50
OC[C@H]1O[C@H](C#Cc2ccc3c(c2)C(CO)(CO)c2cc(C#C[C@H]4O[C@H](CO)[C@@H](O)[C@H](O)[C@@H]4O)ccc2-3)[C@@H](O)[C@@H](O)[C@@H]1O [Compound 217, (2R,3S,4R,5S,6R)-2-[2-[9,9-Bis(hydroxymethyl)-7-[2-[(2R,3S,4R,5S,6R)-3,4,5-trihydroxy-6-(hydroxymethyl)tetrahydropyran-2-yl]ethynyl]fluoren-2-yl]ethynyl]-6-(hydroxymethyl)tetrahydropyran-3,4,5-triol]	20 nM
O=C1CCC2(CCO1)c1cc(C#C[C@H]3O[C@H](CO)[C@@H](O)[C@H](O)[C@@H]3O)ccc1-c1ccc(C#C[C@H]3O[C@H](CO)[C@@H](O)[C@H](O)[C@@H]3O)cc12 [Compound 218, 2,7-bis[2-[(2R,3S,4R,5S,6R)-3,4,5-trihydroxy-6-(hydroxymethyl)tetrahydropyran-2-yl]ethynyl]spiro[fluorene-9,5oxepane]-2one]	0.09 nM
O=C(O)CCC1(CCO)c2cc(C#C[C@H]3O[C@H](CO)[C@@H](O)[C@H](O)[C@@H]3O)ccc2-c2ccc(C#C[C@H]3O[C@H](CO)[C@@H](O)[C@H](O)[C@@H]3O)cc21 [Compound 219, 3-[9-(2-hydroxyethyl)-2,7-bis[2-[(2R,3S,4R,5S,6R)-3,4,5-trihydroxy-6-(hydroxymethyl)tetrahydropyran-2-yl]ethynyl]fluoren-9-yl]propanoic acid]	3.8 nM
O=C(CN1CCOCC1)N1CCC2(CC1)c1cc(C#C[C@H]3O[C@H](CO)[C@@H](O)[C@H](O)[C@@H]3O)ccc1-c1ccc(C#C[C@H]3O[C@H](CO)[C@@H](O)[C@H](O)[C@@H]3O)cc12 [Compound 221, 1-[2,7-bis[2-[(2R,3S,4R,5S,6R)-3,4,5-trihydroxy-6-(hydroxymethyl)tetrahydropyran-2-yl]ethynyl]spiro[fluorene-9,4piperidine]-1l]-2-morpholino-ethanone]	0.04 nM
CN(C)CC(=O)c1c(C#C[C@H]2O[C@H](CO)[C@@H](O)[C@H](O)[C@@H]2O)ccc2c1C1(CCNCC1)c1cc(C#C[C@H]3O[C@H](CO)[C@@H](O)[C@H](O)[C@@H]3O)ccc1-2 [Compound 222, 1-[2,7-bis[2-[(2R,3S,4R,5S,6R)-3,4,5-trihydroxy-6-(hydroxymethyl)tetrahydropyran-2-yl]ethynyl]spiro[fluorene-9,4piperidine]-1yl]-2-(dimethylamino)ethanone]	0.08 nM
CCC(=O)c1c(C#C[C@H]2O[C@H](CO)[C@@H](O)[C@H](O)[C@@H]2O)ccc2c1C1(CCNCC1)c1cc(C#C[C@H]3O[C@H](CO)[C@@H](O)[C@H](O)[C@@H]3O)ccc1-2 [Compound 223, 1-[2,7-bis[2-[(2R,3S,4R,5S,6R)-3,4,5-trihydroxy-6-(hydroxymethyl)tetrahydropyran-2-yl]ethynyl]spiro[fluorene-9,4piperidine]-1-yl]propan-1-one]	0.06 nM
CC(C)C(=O)N1CCC2(CC1)c1cc(C#C[C@H]3O[C@H](CO)[C@@H](O)[C@H](O)[C@@H]3O)ccc1-c1ccc(C#C[C@H]3O[C@H](CO)[C@@H](O)[C@H](O)[C@@H]3O)cc12 [Compound 224, 1-[2,7-bis[2-[(2R,3S,4R,5S,6R)-3,4,5-trihydroxy-6-(hydroxymethyl)tetrahydropyran-2-yl]ethynyl]spiro[fluorene-9,4piperidine]-1yl]-2-methyl-propan-l-one]	0.08 nM
CC1(C(=O)c2c(C#C[C@H]3O[C@H](CO)[C@@H](O)[C@H](O)[C@@H]3O)ccc3c2C2(CCNCC2)c2cc(C#C[C@H]4O[C@H](CO)[C@@H](O)[C@H](O)[C@@H]4O)ccc2-3)CC1 [Compound 225, [2,7-bis[2-[(2R,3S,4R,5S,6R)-3,4,5-trihydroxy-6-(hydroxymethyl)tetrahydropyran-2-yl]ethynyl]spiro[fluorene-9,4piperidine]-1yl]-(1-methylcyclopropyl)methanone]	1.2 nM
O=C(c1c(C#C[C@H]2O[C@H](CO)[C@@H](O)[C@H](O)[C@@H]2O)ccc2c1C1(CCNCC1)c1cc(C#C[C@H]3O[C@H](CO)[C@@H](O)[C@H](O)[C@@H]3O)ccc1-2)C1CCC1 [Compound 226, [2,7-bis[2-[(2R,3S,4R,5S,6R)-3,4,5-trihydroxy-6-(hydroxymethyl)tetrahydropyran-2-yl]ethynyl]spiro[fluorene-9,4piperidine]-1yl]-cyclobutyl-methanone]	0.06 nM
O=C(c1c(C#C[C@H]2O[C@H](CO)[C@@H](O)[C@H](O)[C@@H]2O)ccc2c1C1(CCNCC1)c1cc(C#C[C@H]3O[C@H](CO)[C@@H](O)[C@H](O)[C@@H]3O)ccc1-2)C1(O)CC1 [Compound 227, [2,7-bis[2-[(2R,3S,4R,5S,6R)-3,4,5-trihydroxy-6-(hydroxymethyl)tetrahydropyran-2-yl]ethynyl]spiro[fluorene-9,4piperidine]-1yl]-(1hydroxycyclopropyl)methanone]	0.06 nM
CC(C)(C)C(=O)N1CCC2(CC1)c1cc(C#C[C@H]3O[C@H](CO)[C@@H](O)[C@H](O)[C@@H]3O)ccc1-c1ccc(C#C[C@H]3O[C@H](CO)[C@@H](O)[C@H](O)[C@@H]3O)cc12 [Compound 228, 1-[2,7-bis[2-[(2R,3S,4R,5S,6R)-3,4,5-trihydroxy-6-(hydroxymethyl)tetrahydropyran-2-yl]ethynyl]spiro[fluorene-9,4piperidine]-1yl]-2,2-dimethyl-propan-l-one]	0.44 nM
CO[C@H](C)C(=O)c1c(C#C[C@H]2O[C@H](CO)[C@@H](O)[C@H](O)[C@@H]2O)ccc2c1C1(CCNCC1)c1cc(C#C[C@H]3O[C@H](CO)[C@@H](O)[C@H](O)[C@@H]3O)ccc1-2 [Compound 229, (2R)-1-[2,7-bis[2-[(2R,3S,4R,5S,6R)-3,4,5-trihydroxy-6-(hydroxymethyl)tetrahydropyran-2-yl]ethynyl]spiro[fluorene-9,4piperidine]-1yl]-2-methoxy-propan-1-one]	0.35 nM
N#CC1(C(=O)c2c(C#C[C@H]3O[C@H](CO)[C@@H](O)[C@H](O)[C@@H]3O)ccc3c2C2(CCNCC2)c2cc(C#C[C@H]4O[C@H](CO)[C@@H](O)[C@H](O)[C@@H]4O)ccc2-3)CC1 [Compound 230, 1-[2,7-bis[2-[(2R,3S,4R,5S,6R)-3,4,5-trihydroxy-6-(hydroxymethyl)tetrahydropyran-2-yl]ethynyl]spiro[fluorene-9,4piperidine]-1carbonyl]cyclopropanecarbonitrile]	0.16 nM
O=C(c1ccn[nH]1)N1CCC2(CC1)c1cc(C#C[C@H]3O[C@H](CO)[C@@H](O)[C@H](O)[C@@H]3O)ccc1-c1ccc(C#C[C@H]3O[C@H](CO)[C@@H](O)[C@H](O)[C@@H]3O)cc12 [Compound 231]	0.08 nM
O=C(c1ccno1)c1c(C#C[C@H]2O[C@H](CO)[C@@H](O)[C@H](O)[C@@H]2O)ccc2c1C1(CCNCC1)c1cc(C#C[C@H]3O[C@H](CO)[C@@H](O)[C@H](O)[C@@H]3O)ccc1-2 [Compound 232, [2,7-bis[2-[(2R,3S,4R,5S,6R)-3,4,5-trihydroxy-6-(hydroxymethyl)tetrahydropyran-2-yl]ethynyl]spiro[fluorene-9,4piperidine]-1yl]-isoxazol-5-yl-methanone]	0.04 nM
O=C(c1c(C#C[C@H]2O[C@H](CO)[C@@H](O)[C@H](O)[C@@H]2O)ccc2c1C1(CCNCC1)c1cc(C#C[C@H]3O[C@H](CO)[C@@H](O)[C@H](O)[C@@H]3O)ccc1-2)[C@H]1CCCO1 [Compound 233, [2,7-bis[2-[(2R,3S,4R,5S,6R)-3,4,5-trihydroxy-6-(hydroxymethyl)tetrahydropyran-2-yl]ethynyl]spiro[fluorene-9,4piperidine]-1yl]-[(2R)-tetrahydrofuran-2-yl]methanone]	0.05 nM
